Results from patent US6004960A, “Pyridazinones as inhibitors of cyclooxygenase-2” (Merck Frosst Canada, Inc., priority 1998, dated 1999).

What was measured:
[1] = target: COX-1 (Homo sapiens, UniProt P23219); experiment: Assay of COX-1 activity from U937 cell microsomes; type: biochemical; parameters: Assay of COX-1 Activity from U937 cell microsomes; endogenous in cells; host or cells: U937 cells, 100,000×g microsomal pellet; conditions: PGE2, read-out: COX-1 (IC50 μM) U-937
Description: Assay of COX-1 Activity from U937 cell microsomes
U 937 cells are pelleted by centrifugation at 500×g for 5 min and washed once with phosphate-buffered saline and repelleted. […] The cell suspension is sonicated 4 times for 10 sec and is centrifuged at 10,000×g for 10 min at 4° C. The supernatant is centrifuged at 100,000×g for 1 hr at 4° C. The 100,000×g microsomal pellet is resuspended in 0.1 M Tris-HCl, pH 7.4, 10 mM EDTA to approximately 7 mg protein/ml and stored at -80° C.
Microsomal preparations are thawed immediately prior to use, subjected to a brief sonication, and then diluted to a protein concentration of 125 μg/ml in 0.1 M Tris-HCl buffer, pH 7.4 containing 10 mM EDTA, 0.5 mM phenol, 1 mM reduced glutathione and 1 μM hematin. Assays are performed in duplicate in a final volume of 250 pl. Initially, 5 µl of DMSO vehicle or drug in DMSO are added to 20 μl of 0.1 M Tris-HCl buffer, pH 7.4 containing 10 mM EDTA in wells of a 96-deepwell polypropylene titre plate. 200 μl of the microsomal preparation are then added and pre-incubated for 15 min at room temperature before addition of 25 μl of […] in 0.1 M Tris-HCl and 10 mM EDTA, pH 7.4. Samples are incubated for 40 min at room temperature and the reaction is stopped by the addition of 25 pl of 1 N HCl. Samples are neutralized with 25 μl of 1 N NaOH prior to quantitation of PGE2 content by radioimmunoassay (Dupont-NEN or Amersham assay kits). Cyclooxygenase activity is defined as the difference between PGE2 levels in samples incubated in the presence of arachidonic acid and ethanol vehicle.
(§1) In the assay, inhibition is determined by measuring the amount of prostaglandin E2 (PGE2) synthesized in the presence of arachidonic acid, cyclooxygenase-I or cyclooxygenase-2 and a putative inhibitor.

[2] = target: T1, COX-2 (Homo sapiens, UniProt P35354); experiment: Whole cell assay for COX-2 using CHO transfected cell line (CHO [hCOX-2]), PGE2; type: cell-based; parameters: expressed in transfected cells; host or cells: CHO (Chinese hamster ovary), stably transfected with pCDNAIII vector; CHO [hCOX-2]; conditions: CHO [hCOX-2] cells, 10 μM AA
T1 sequence (P35354 18-604): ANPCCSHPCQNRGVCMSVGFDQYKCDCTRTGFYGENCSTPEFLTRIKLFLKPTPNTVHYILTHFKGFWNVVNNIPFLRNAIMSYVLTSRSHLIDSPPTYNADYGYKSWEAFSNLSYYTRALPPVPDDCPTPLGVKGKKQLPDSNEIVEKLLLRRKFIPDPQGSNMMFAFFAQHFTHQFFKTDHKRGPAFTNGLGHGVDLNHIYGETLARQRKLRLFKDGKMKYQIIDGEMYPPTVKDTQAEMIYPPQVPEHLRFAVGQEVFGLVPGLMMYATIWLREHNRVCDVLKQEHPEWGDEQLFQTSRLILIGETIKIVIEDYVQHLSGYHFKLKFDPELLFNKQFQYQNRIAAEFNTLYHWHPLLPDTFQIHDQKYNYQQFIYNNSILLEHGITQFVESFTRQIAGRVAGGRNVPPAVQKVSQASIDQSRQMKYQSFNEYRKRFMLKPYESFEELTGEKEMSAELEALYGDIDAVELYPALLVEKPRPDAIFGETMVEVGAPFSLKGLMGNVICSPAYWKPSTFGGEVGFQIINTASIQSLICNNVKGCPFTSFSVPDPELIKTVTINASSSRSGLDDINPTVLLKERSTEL
Description: Chinese hamster ovary (CHO) cell lines which have been stably transfected with an eukaryotic expression vector pCDNAIII containing either the human COX-1 or COX-2 cDNA's are used for the assay. These cell lines are referred to as CHO [hCOX-1] and CHO [hCOX-2], respectively. […] Drugs to be tested are dissolved in DMSO to 66.7-fold the highest test drug concentration. […] Cells (0.3×10^6 cells in 200 p) are preincubated with 3 AIl of the test drug or DMSO vehicle for 15 min at 37° C. […] Cells are then challenged in the presence or absence of drug with the AA/HBSS solution to yield a final concentration of 0.5 μM AA in the CHOhCOX-1] assay and a final concentration of 10 μM AA in the CHO [hCOX-2] assay. […] The samples are centrifuged at 300×g at 4° C. for 10 min, and an aliquot of the clarified supernatant is appropriately diluted for the determination of PGE2 levels using an enzyme-liked immunoassay for PGE2 (Correlate PGE2 enzyme immunoassay kit, Assay Designs, Inc.). Cyclooxygenase activity in the absence of test compounds is determined as the difference in PGE2 levels of cells challenged with arachidonic acid versus the PGE2 levels in cells mock-challenged with ethanol vehicle. Inhibition of PGE2 synthesis by test compounds is calculated as a percentage of the activity in the presence of drug versus the activity in the positive control samples.
as §1

COX-1, sequence (P23219 24-599): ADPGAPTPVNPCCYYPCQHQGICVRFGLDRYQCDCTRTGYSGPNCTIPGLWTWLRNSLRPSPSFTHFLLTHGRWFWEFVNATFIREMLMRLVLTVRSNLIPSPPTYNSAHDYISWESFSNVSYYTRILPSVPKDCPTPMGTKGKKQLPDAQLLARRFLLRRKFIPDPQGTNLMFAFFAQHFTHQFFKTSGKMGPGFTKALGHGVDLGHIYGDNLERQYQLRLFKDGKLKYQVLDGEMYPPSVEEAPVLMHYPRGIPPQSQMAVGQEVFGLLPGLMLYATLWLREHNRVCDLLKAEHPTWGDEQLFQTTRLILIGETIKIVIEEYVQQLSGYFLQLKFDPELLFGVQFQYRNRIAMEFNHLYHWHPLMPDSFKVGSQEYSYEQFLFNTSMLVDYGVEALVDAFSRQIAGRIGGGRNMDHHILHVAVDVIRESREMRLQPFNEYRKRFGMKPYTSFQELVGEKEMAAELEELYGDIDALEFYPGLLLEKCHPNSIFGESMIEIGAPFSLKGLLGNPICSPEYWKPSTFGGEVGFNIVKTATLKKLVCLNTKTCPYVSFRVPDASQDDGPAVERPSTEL

For `CS(=O)(=O)c1ccc(-c2cnn(Cc3ccccc3)c(=O)c2-c2cccnc2)cc1` [Example 28, 2-Benzyl-5-(4-methylsulfonyl)phenyl-4-(3-pyridyl)-2H-pyridazin-3-one], the IC50 [1] was > 10 µM and the IC50 [2] was 0.13 µM.
